Experimental data: the supplement of paper PMC10307832

Tests used:
Test in all cases: relative viability (nuclei count vs DMSO), 5 days (fraction); higher = more cells survive
Selisistat + OSI-027 = compound: C1CC(C2=C(C1)C3=C(N2)C=CC(=C3)Cl)C(=O)N [Selisistat] + COc1cccc2cc(-c3nc([C@H]4CC[C@H](C(=O)O)CC4)n4ncnc(N)c34)[nH]c12 [OSI-027] (partner 0.5 µM)
Procedure, shortened: (§1)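 Lung cancer cell lines, seeded in 1536-well plates, were treated the following day by pin tool with a single drug or with five library-drug doses (not always all listed) in √10 steps on top of a fixed anchor-drug dose. Cells were fixed and nuclei stained in one step after 5 days, and nuclei were counted. Relative viability is the nuclei count for treated wells divided by that for vehicle wells, reported as medians of duplicate plates.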

Selisistat + Linsitinib = compound: C1CC(C2=C(C1)C3=C(N2)C=CC(=C3)Cl)C(=O)N [Selisistat] + C[C@]1(O)C[C@@H](c2nc(-c3ccc4ccc(-c5ccccc5)nc4c3)c3c(N)nccn32)C1 [Linsitinib] (partner 1 µM)
Procedure, shortened: as §1

Selisistat + Phenformin = compound: C1CC(C2=C(C1)C3=C(N2)C=CC(=C3)Cl)C(=O)N [Selisistat] + N=C(N)NC(=N)NCCc1ccccc1 [Phenformin] (partner 250 µM)
Procedure, shortened: as §1

Serdemetan + Luminespib = compound: c1ccc2c(CCNc3ccc(Nc4ccncc4)cc3)c[nH]c2c1 [Serdemetan] + CCNC(=O)c1noc(-c2cc(C(C)C)c(O)cc2O)c1-c1ccc(CN2CCOCC2)cc1 [Luminespib] (partner 0.01 µM)
Procedure, shortened: as §1

Row | Cell Line | relative viability (Selisistat + OSI-027; first compound 0.4 µM) | relative viability (Selisistat + OSI-027; first compound 1.265 µM) | relative viability (Selisistat + OSI-027; first compound 4 µM) | relative viability (Selisistat + OSI-027; first compound 12.65 µM) | relative viability (Selisistat + OSI-027; first compound 40 µM) | relative viability (Selisistat + Linsitinib; first compound 0.4 µM) | relative viability (Selisistat + Linsitinib; first compound 1.265 µM) | relative viability (Selisistat + Linsitinib; first compound 12.65 µM) | relative viability (Selisistat + Linsitinib; first compound 40 µM) | relative viability (Selisistat + Phenformin; first compound 0.4 µM) | relative viability (Selisistat + Phenformin; first compound 1.265 µM) | relative viability (Selisistat + Phenformin; first compound 4 µM) | relative viability (Selisistat + Phenformin; first compound 12.65 µM) | relative viability (Selisistat + Phenformin; first compound 40 µM) | relative viability (Serdemetan + Luminespib; first compound 0.04 µM) | relative viability (Serdemetan + Luminespib; first compound 0.1265 µM) | relative viability (Serdemetan + Luminespib; first compound 0.4 µM) | relative viability (Serdemetan + Luminespib; first compound 1.265 µM) | relative viability (Serdemetan + Luminespib; first compound 4 µM) | relative viability (Selisistat + Linsitinib; first compound 4 µM)
1 | NCI-H647 | 0.746 | 0.58 | 0.614 | 0.713 | 0.829 | 1.15 | 1.12 | 1.07 | 1.26 | 0.561 | 0.499 | 0.43 | 0.324 | 0.678 | 0.272 | 0.185 | 0.176 | 0.123 | 0.112 | –
2 | SK-MES-1 | 0.638 | 0.668 | 0.657 | 0.437 | 0.646 | 1.11 | 1.04 | 1.05 | 1.01 | 0.683 | 0.718 | 0.681 | 0.695 | 0.681 | 0.789 | 0.731 | 0.799 | 0.617 | 0.772 | 0.955
3 | NCI-H2085 | 0.822 | 0.733 | 0.397 | 0.79 | 0.921 | 0.985 | 1 | 0.803 | 0.902 | 0.824 | 0.717 | 0.472 | 0.735 | 0.728 | 0.454 | 0.394 | 0.457 | 0.382 | 0.354 | 0.795
4 | SW 1573 | 0.704 | 0.616 | 0.664 | 0.772 | 0.545 | 0.859 | 0.823 | 0.904 | 0.84 | 0.411 | 0.314 | 0.362 | 0.445 | 0.399 | 0.343 | 0.161 | 0.215 | 0.113 | 0.192 | 0.747
5 | NCI-H727 | 0.587 | 0.641 | – | 0.641 | 0.511 | 0.297 | 0.292 | – | 0.395 | 0.564 | 0.534 | – | 0.398 | 0.478 | 0.319 | 0.481 | 0.288 | 0.265 | 0.385 | –
6 | NCI-H441 | 0.658 | 0.532 | 0.481 | 0.544 | 0.754 | 0.648 | 0.639 | 0.448 | 0.554 | 0.801 | 0.799 | 0.698 | 0.779 | 0.8 | 0.381 | 0.298 | 0.321 | 0.316 | 0.325 | 0.502
7 | LOU-NH91 | 0.814 | 0.715 | 0.675 | 0.756 | 0.708 | 0.999 | 0.95 | 1.08 | 0.937 | 0.822 | 0.691 | 0.627 | 0.71 | 0.728 | 0.282 | 0.334 | 0.347 | 0.296 | 0.299 | 0.848
8 | NCI-H3122 | 0.9 | 0.933 | 0.444 | 0.892 | 1.01 | 1.03 | 0.953 | 1.06 | 0.994 | 0.406 | 0.367 | 0.294 | 0.369 | 0.371 | 0.0976 | 0.0835 | 0.115 | – | 0.101 | 0.872
9 | NCI-H460 | 0.695 | 0.667 | 0.471 | 0.557 | 0.666 | 0.848 | 0.663 | 0.821 | 0.824 | 0.598 | 0.565 | 0.366 | 0.495 | 0.571 | 0.0305 | 0.0294 | 0.0326 | 0.0303 | 0.0264 | –
10 | NCI-H650 | 0.524 | 0.523 | 0.715 | 0.496 | 0.555 | 0.824 | – | 0.72 | 1.01 | 0.499 | 0.432 | 0.441 | 0.432 | 0.485 | 0.659 | 0.875 | 0.732 | 0.576 | 0.505 | 0.987
11 | NCI-H661 | 0.749 | 0.81 | 0.744 | 0.629 | 0.564 | 0.596 | 0.609 | 0.488 | 0.588 | 0.27 | 0.263 | 0.282 | 0.286 | 0.251 | 0.91 | 0.943 | 0.95 | 0.799 | 0.854 | 0.52
12 | NCI-H1793 | 0.28 | 0.245 | – | 0.299 | 0.345 | 0.977 | 0.822 | 1.01 | 1.17 | 0.398 | 0.366 | – | 0.303 | 0.388 | 0.17 | 0.186 | 0.343 | 0.169 | 0.165 | –
13 | NCI-H1734 | 0.616 | 0.636 | 0.491 | 0.545 | 0.685 | 0.956 | 0.913 | 0.846 | 0.828 | 0.442 | 0.377 | 0.324 | 0.382 | 0.356 | 0.198 | 0.24 | 0.196 | 0.15 | 0.186 | 0.913
14 | LXF-289 | 0.797 | 0.806 | 0.667 | 0.788 | 0.838 | 0.995 | 0.954 | 0.913 | 1.01 | 0.503 | 0.517 | 0.475 | 0.499 | 0.538 | 0.636 | 0.706 | 0.625 | 0.517 | 0.401 | 0.895
15 | H3255 | 0.621 | 0.553 | 0.741 | 0.579 | 0.648 | 0.946 | 0.843 | 0.827 | 0.938 | 0.375 | 0.363 | 0.327 | 0.405 | 0.374 | 0.913 | 1.02 | 0.783 | 0.994 | 0.669 | 0.973
16 | 201T | 0.797 | 0.705 | 0.555 | 0.587 | 0.739 | 1.08 | 1.02 | 0.967 | 1.06 | 0.449 | 0.436 | 0.432 | 0.41 | 0.481 | 1.05 | 1.07 | 1.03 | 0.895 | 0.692 | 0.998
17 | NCI-H2126 | 0.781 | 0.639 | 0.609 | 0.62 | 0.768 | 0.807 | 0.663 | 0.758 | 0.804 | 0.516 | 0.489 | 0.499 | 0.537 | 0.551 | 0.983 | 0.964 | 0.9 | 0.88 | 1.01 | 0.686
